In patent EP1541694A1, “Methods of identifying, selecting and/or characterizing compounds which modulate the activity of a Src family kinase” (Sirenade Pharmaceuticals AG, priority 2003, dated 2005):

Tests used:
[1] = system: Src-TQ/YF expressing ZM170 cell lines; test: Suppression of tet-induced phenotype changes, evaluated by eye/microscope, normal cell culture plates; assay type: cell-based, human; settings: adherent, PP1-Chr. and PP2 shown as combination 10µM + 5µM
Protocol: Phenotype changes -tet → +tet were evaluated in 24-well plates (Nunc; cat.no. 143982) under the following several different growth conditions to identify the strongest possible response (Δpt(-tet→+tet)max) 1. full (10% serum containing) growth medium a) without any growth factor supplement (-), b) with epidermal growth factor (EGF; 100ng/ml) (cat.no. 115, Research Diagnostics Inc. (RDI), Flanders, NJ, USA) or c) platelet derived growth factor type BB (PDGF-BB; 30ng/ml) (cat.no. 114b, RDI) or d) hepatocyte growth factor (HGF; 20ng/ml) (RDI, cat.no.300-010), or 2. serum-free medium a) - or b) +EGF or c) +PDGF or d) +HGF. In all cases, cells were first seeded into standard 24-well or 96-well plates (Nunc) in full growth medium. The cell number seeded per well was also varied to identify the most suitable cell densities producing Δpt(-tet→+tet)max. […]
To that end, the test compounds PP1-Chr., PP2 (cat.no. 529573, Calbiochem) and SU6656 (cat.no. 572635, Calbiochem) (see Fig.9p for chemical structures) were individually added to the cells together with tet, and the development of the phenotype changes in the presence of these compounds was monitored subsequently in direct comparison with cells that received no compound or only vehicle (0.2% DMSO) together with tet induction. […]

ZM75.7 (Src) = test: MTS and ATP cell viability/metabolic activity assays, suppression of tet-induced reduction; assay type: cell-based, human; settings: 3 days after tet/compound addition
From the text: To proof the concept of the assay platform according to the invention in a quantitative manner with a highly parallel readout, the following cell viability / metabolic activity assays from Promega according to the manufacturer's protocols: "CellTiter 96 AQueous One Solution Cell Proliferation Assay (MTS)", CellTiter-Blue™ Cell Viability Assay (CTB), and the ATP-status assay "CellTiter-Glo Luminescent Cell Viability Assay" (ATP) were used to obtain quantitative values reflecting (aspects of) the phenotype changes.
The cells were seeded into white-walled/ clear bottom 96-well plates ["MICROTEST" by Falcon, cat.no. […] Measurements were taken 1,2 and 3 days later using the Wallac Victor^2™ multilabel plate reader (Perkin Elmer). Absorbance was measured at 490nm (MTS). Luminescence mode was used for the ATP assay. For CTB fluorescence excitation wavelength was 550nm (filter: 550(20)nm), emission wavelength was 590 nm (filter: 590(20)nm). […]
Three more parameters reflecting the effects of compounds on cell viability/metabolic activity in these assays are indicated in Tab.3 and Tab.4: Toxicity reflects the nonspecific (i.e. irrespective of tet-induced Src/ Src mutant expression) effects of a compound on the viability/ metabolic activity of the cells. It is calculated as toxicity=1-mean(-tet, compound)/mean(-tet,(DMSO)). […]

`CC(C)(C)n1nc(-c2ccc(Cl)cc2)c2c(N)ncnc21` [PP2] was tested, and the “suppression of tet-induced phenotype changes” value [1] was “ineffective” and the “suppression effects on ZM75.7” value (ZM75.7 (Src)) was “detected”.
